Laboratory results reported in patent US9738677B2, “Amphotericin B derivative with reduced toxicity” (priority 2014, dated 2017).
“Also recorded” adds a separate entry of the source.

Legend:
[1] = ITC sterol binding, POPC LUVs containing 10% ergosterol
Procedure: (§1) Isothermal Titration calorimetry (ITC)
(§2) In an optimized isothermal titration calorimetry (ITC)-based assay, an aqueous solution of AmB was titrated with a suspension of large unilamellar vesicles (LUVs) comprised of only 1-palmitoyl-2-oleoyl-sn-glycero-3-phosphocholine (POPC), and the net exotherm was recorded. The titration was repeated using POPC LUVs containing 10% ergosterol. […] The titration was repeated using C2′epiAmB. […] The ITC assay was also conducted with cholesterol in place of ergosterol.
(§3) Experiments were performed using a NanoITC isothermal titration calorimeter (TA Instruments, Wilmington, Del.). Solutions of the compounds to be tested were prepared by diluting a 60.0 mM stock solution of the compound in DMSO to 600 μM with K buffer (5.0 mM HEPES/KHEPES, pH=7.4). The final DMSO concentration in the solution was 1% v/v. Large unilamellar vesicles comprised of only 1-palmitoyl-2-oleoyl-sn-glycero-3-phosphocholine (POPC LUVs) were prepared and phosphorus and ergosterol content was quantified as described below. The LUV solutions were diluted with buffer and DMSO to give a final phospholipid concentration of 12.0 mM in a 1% DMSO/K buffer solution. Immediately prior to use, all solutions were incubated at 37° C. for 30 minutes and degassed under vacuum at 37° C. for 10 minutes. The reference cell of the instrument (volume=0.190 mL) was filled with a solution of 1% v/v DMSO/K buffer.
Palmitoyl oleoyl phosphatidylcholine (POPC) was obtained as a 20 mg/mL solution in CHCl3 from Avanti Polar Lipids (Alabaster, Ala.) and was stored at −20° C. under an atmosphere of dry argon and used within 1 month. […]
Ergosterol content was determined spectrophotometrically. […] The solutions were then analyzed by UV/Vis spectroscopy and the concentration of ergosterol in solution was determined by the extinction coefficient of 10400 L mol^−1 cm^−1 at the UVmax of 282 nm and was compared to the concentration of phosphorus to determine the percent sterol content. The extinction coefficient was determined independently in the above ternary solvent system. […]

[2] = ITC sterol binding, POPC LUVs containing 10% cholesterol
Procedure: as §1, §2, §3
Palmitoyl oleoyl phosphatidylcholine (POPC) was obtained as a 20 mg/mL solution in CHCl3 from Avanti Polar Lipids (Alabaster, Ala.) and was stored at −20° C. under an atmosphere of dry argon and used within 1 month. A 4 mg/mL solution of ergosterol in CHCl3 was prepared monthly and stored at 4° C. under an atmosphere of dry argon. […]
NanoAnalyze software (TA Instruments) was used for baseline determination and integration of the injection heats, and Microsoft Excel was used for subtraction of dilution heats and the calculation of overall heat evolved. […] By this method, the overall heat evolved during the experiment was calculated using the following formula: […]

[3] = tested on: C. albicans; assay: Mouse model of disseminated candidiasis, kidney fungal burden; assay type: in vivo; details: neutropenic mice, single intraperitoneal 16 mg/kg 2 hours post infection, kidneys at 24 hours post infection
Procedure: FIG. 7 is a bar graph depicting kidney fungal load (colony forming units, CFUs) in neutropenic mice inoculated intravenously with C. albicans, and then treated two hours later with a single intraperitoneal dose of vehicle or 16 mg/kg AmB or C2′epiAmB.
The antifungal efficacy of C2′epiAmB was tested in a mouse model of disseminated candidiasis. In this experiment neutropenic mice were infected with C. albicans via their tail veins, and then 2 hours post infection the mice were treated with a single intraperitoneal injection of 16 mg/kg AmB or C2′epiAmB. Then at 24 hours post infection the mice were sacrificed, and the fungal burden present in their kidneys was quantified.

With `C[C@@H]1[C@H](O)[C@@H](C)/C=C/C=C/C=C/C=C/C=C/C=C/C=C/[C@H](O[C@@H]2O[C@H](C)[C@@H](O)[C@H](N)[C@H]2O)CC2O[C@](O)(C[C@@H](O)C[C@@H](O)[C@H](O)CC[C@@H](O)C[C@@H](O)CC(=O)O[C@H]1C)C[C@H](O)[C@H]2C(=O)O` [C2′epiAmB] the Total exotherm ([1]; 10% ergosterol LUVs, 600 μM compound) was -15.24 ± 1.66 µcal, the “Binding to ergosterol (in words)” value ([1]; net exotherm vs sterol-free LUVs) was “binds to ergosterol; also recorded: retained capacity for the epimeric derivative to bind ergosterol” and the Total exotherm ([2]; 10% cholesterol LUVs, 600 μM compound) was -6.43 ± 2.80 µcal. For the same molecule, the “Binding to cholesterol (in words)” value ([2]; within the limits of the binding assay) was “but not cholesterol; also recorded: not found to bind to cholesterol; also recorded: do not bind cholesterol” and the “Reduction of kidney fungal burden relative to AmB” value [3] was 0.5 log units.
